For this experiment, the target named is T1, CYP1A2 (Homo sapiens, UniProt P05177).
T1 construct: using pooled human liver microsomes; tissue BD Gentest Co. H161; host or cells: pooled human liver microsomes
T1 sequence (P05177 1-516): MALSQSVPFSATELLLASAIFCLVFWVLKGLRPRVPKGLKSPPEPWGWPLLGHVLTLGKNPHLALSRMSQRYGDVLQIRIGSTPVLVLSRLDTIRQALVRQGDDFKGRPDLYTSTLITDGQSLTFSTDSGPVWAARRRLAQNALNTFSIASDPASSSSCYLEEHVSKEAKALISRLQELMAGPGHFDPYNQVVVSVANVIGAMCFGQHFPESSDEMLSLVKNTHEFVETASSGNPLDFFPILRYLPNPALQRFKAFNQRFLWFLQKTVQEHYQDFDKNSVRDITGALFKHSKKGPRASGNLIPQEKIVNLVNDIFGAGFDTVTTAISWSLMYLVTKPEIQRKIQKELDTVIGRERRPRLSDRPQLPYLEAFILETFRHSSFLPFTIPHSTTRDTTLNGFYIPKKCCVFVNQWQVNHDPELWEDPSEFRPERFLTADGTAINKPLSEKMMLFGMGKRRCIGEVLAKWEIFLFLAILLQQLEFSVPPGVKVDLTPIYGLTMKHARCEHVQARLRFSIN
The experiment is described as follows: CYP1A2 phenacetin O-deethylation inhibition, cocktail assay in pooled human liver microsomes. The format is in vitro ADME. Conditions: 50 μM phenacetin, no inhibition at 200 μM of corydaline; for IC50 no preincubation, CYP1A2 phenacetin O-deethylation: pooled human liver microsomes (H161). How it is done: Phenacetin O-deethylase, coumarin 7-hydroxylase, amodiaquine N-deethylase, diclofenac 4-hydroxylase, S-mephenytoin 4-hydroxylase, bufuralol hydroxylase, and midazolam 1’-hydroxylase activities were determined as probe activities for CYP1A2, CYP2A6, CYP2C8, CYP2C9, CYP2C19, CYP2D6, and CYP3A4, respectively, using cocktail incubation and liquid chromatography-tandem mass spectrometry (LC/MS/MS). The incubation mixtures were prepared in a total volume of 200 μL, as follows: pooled human liver microsomes (0.25 mg/mL), 1.3 mM NADPH, 3.3 mM MgCl2, 50 mM potassium phosphate buffer (pH 7.4), and a cocktail of probe substrates and various concentrations of corydaline (1−200 μM). The substrates were used at concentrations approximately equal to their respective Km values: 50 μM phenacetin, 2.5 μM coumarin, 2.5 μM amodiaquine, 10 μM diclofenac, 100 μM S-mephenytoin, 5 μM bufuralol, and 2.5 μM midazolam. After a 3-min pre-incubation period at 37 °C, the reactions were initiated by addition of an NADP generating system and incubated for 20 min at 37 °C in a shaking water bath. After incubation, the reaction was stopped by placement of the tubes on ice and addition of 100 μL of ice-cold methanol containing internal standards (^13C2,^15N-acetaminophen for acetaminophen and N-desethylamodiaquine, d5-7-hydroxycoumarin for 7-hydroxycoumarin, ^13C6-4-hydroxydiclofenac for 4-hydroxydiclofenac, d3-4-hydroxy-mephenytoin for 4-hydroxymephenytoin and hydroxymidazolam, d9-1-hydroxybufuralol for 1-hydroxybufuralol). The incubation mixtures were then centrifuged at 13,000 × g for 5 min. All incubations were performed in triplicate and the mean values were used. […] The reaction was started by addition of a cocktail of CYP probe substrates.
All 7 metabolites produced from the cocktail of CYP isoform-specific substrates were simultaneously determined by LC/MS/MS [25]. […] Quantification was performed by selected reaction monitoring (SRM) of the [M+H]^+ ion and the related product ion for each metabolite. […]

Consider `COc1cc2c(cc1OC)C1C(C)c3ccc(OC)c(OC)c3CN1CC2` (stereo not drawn) [Corydaline, 2,3,9,10-tetramethoxy-13-methyl-5,8,13,13a-tetrahydro-6H-isoquino[3,2-a]isoquinoline], for which the “IC50 no preincubation, CYP1A2 phenacetin O-deethylation” value is on record as “negligible inhibition”. The “IC50 no preincubation, CYP1A2 phenacetin O-deethylation” value (listed as corydaline) is “No inhibition **”. Also, the “IC50 with preincubation, CYP1A2 phenacetin O-deethylation” value (pre-incubated 30 min with NADPH) was “No inhibition **”.

(Values after article PMC6264278, “Corydaline Inhibits Multiple Cytochrome P450 and UDP-Glucuronosyltransferase Enzyme Activities in Human Liver Microsomes” (Molecules, 2011).)
